Key:
Androgen receptor (AR) = biological target: T1, Androgen receptor (AR) (Homo sapiens, UniProt P10275, T878A); assay: Assessment of AR proteolytic activity (Western blotting of LNCap cell lysates); format: cell-based; details: 24 hours of treatment, Western blotting quantified with Image J
T1 construct: 5.5×10^5 LNCap cells were injected into each well of a 6-well plate; endogenous in cells; host or cells: LNCaP
T1 sequence (P10275 1-920 T878A): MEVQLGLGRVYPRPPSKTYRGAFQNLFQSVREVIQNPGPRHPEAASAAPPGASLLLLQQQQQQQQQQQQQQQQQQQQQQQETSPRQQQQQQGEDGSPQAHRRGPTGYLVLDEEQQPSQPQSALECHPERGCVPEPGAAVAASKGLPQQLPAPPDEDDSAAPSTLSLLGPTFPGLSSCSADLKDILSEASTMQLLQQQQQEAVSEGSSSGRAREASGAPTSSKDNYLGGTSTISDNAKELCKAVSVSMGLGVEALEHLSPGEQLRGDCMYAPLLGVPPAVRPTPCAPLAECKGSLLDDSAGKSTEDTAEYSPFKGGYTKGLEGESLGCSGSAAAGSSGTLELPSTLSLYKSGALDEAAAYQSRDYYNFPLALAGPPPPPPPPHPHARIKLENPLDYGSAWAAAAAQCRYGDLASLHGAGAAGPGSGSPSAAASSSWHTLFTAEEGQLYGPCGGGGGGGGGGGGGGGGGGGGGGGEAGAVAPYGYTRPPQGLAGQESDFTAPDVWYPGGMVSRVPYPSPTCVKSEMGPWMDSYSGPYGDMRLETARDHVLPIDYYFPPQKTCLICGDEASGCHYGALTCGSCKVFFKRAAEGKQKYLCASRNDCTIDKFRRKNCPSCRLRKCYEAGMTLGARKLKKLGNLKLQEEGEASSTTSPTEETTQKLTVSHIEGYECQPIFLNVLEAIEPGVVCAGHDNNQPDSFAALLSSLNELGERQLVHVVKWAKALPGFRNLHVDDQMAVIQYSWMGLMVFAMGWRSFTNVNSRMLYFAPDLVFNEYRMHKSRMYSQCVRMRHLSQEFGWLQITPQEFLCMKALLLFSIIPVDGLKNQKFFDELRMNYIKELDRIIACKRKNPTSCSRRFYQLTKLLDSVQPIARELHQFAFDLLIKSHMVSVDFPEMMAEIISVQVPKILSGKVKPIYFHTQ
How it was run: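 AR degradation read by Western blot densitometry on RIPA lysates (pH 7.5, protease inhibitor cocktail). Lysates came from LNCap cells, 5.5×10^5 per well, exposed to compound for 24 hours.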

LNCaP cells = assay: Cytotoxicity assessment (Cell-titer-glo cell viability), LNCaP; details: read-out: LNCAP (CC50); LNCaP cells, 6 days of treatment, Cell-titer-glo, vs DMSO
Method: In order to evaluate the androgen receptor (AR) cytotoxicity of the compounds according to the present invention, the following experiment was conducted. Specifically, 1.5×10^3 (LNCaP) or 4×10^3 (VCaP, 22RV1), respectively, of LNCaP, VCaP, and 22RV1 cells were injected into each well of a 96-well plate. The next day, each well was treated with the compound at a final concentration of 3 nM, 10 nM, 30 nM, 100 nM, 300 nM, 1 μM, 3 μM, and 10 μM. […] After 6 days of treatment, Cell-titer-glo (promega) was treated and reacted for 10 minutes, and cell viability was measured with a multimode plate reader (PerkinElmer, Inc.), and the change was quantified compared to when DMSO was treated.

| SMILES | Degradation (1 μM treated in LNCaP, % AR remaining) (Androgen receptor (AR)) | CC50 (LNCaP cells) | CC50 (VCaP cells) |
| --- | --- | --- | --- |
| CC1(C)C(NC(=O)c2ccc(OCCOCCOCCOCCOCCOCCCCNC(=O)C3CCN(c4ccc5nnn(C6CCC(=O)NC6=O)c(=O)c5c4)CC3)cc2)C(C)(C)C1Oc1ccc(C#N)c(Cl)c1 (stereo not drawn) [Example 15, N-(1-(4-(((1r,3r)-3-(3-chloro-4-cyanophenoxy)-2,2,4,4-tetramethylcyclobutyl)carbamoyl)phenoxy)-3,6,9,12,15-pentaoxanonadecan-19-yl)-1-(3-(2,6-dioxopiperidin-3-yl)-4-oxo-3,4-dihydrobenzo[d][1,2,3]triazin-6-yl)piperidine-4-carboxamide] | 13.6% | 1310 nM | – |
| CC1(C)[C@H](NC(=O)c2ccc(N3CCN(CC4(O)CCN(C(=O)COc5ccc6nnn(C7CCC(=O)NC7=O)c(=O)c6c5)CC4)CC3)cc2)C(C)(C)[C@H]1Oc1ccc(C#N)c(Cl)c1 (stereo partly drawn) [Example 54, N-((1r,3r)-3-(3-chloro-4-cyanophenoxy)-2,2,4,4-tetramethylcyclobutyl)-4-(4-((1-(2-((3-(2,6-dioxopiperidin-3-yl)-4-oxo-3,4-dihydrobenzo[d][1,2,3]triazin-6-yl)oxy)acetyl)-4-hydroxypiperidin-4-yl)methyl)piperazin-1-yl)benzamide] | 7.7% | – | 553 nM |
| CC1(C)C(NC(=O)c2ccc(-n3cc(CC4CCN(C(=O)C5CN(c6ccc7nnn(C8CCC(=O)NC8=O)c(=O)c7c6)C5)CC4)nn3)cc2)C(C)(C)C1Oc1ccc(C#N)c(Cl)c1 (stereo not drawn) [Example 90, N-((1r,3r)-3-(3-chloro-4-cyanophenoxy)-2,2,4,4-tetramethylcyclobutyl)-4-(4-((1-(1-(3-(2,6-dioxopiperidin-3-yl)-4-oxo-3,4-dihydrobenzo[d][1,2,3]triazin-6-yl)azetidine-3-carbonyl)piperidin-4-yl)methyl)-1H-1,2,3-triazol-1-yl)benzamide] | 5% | – | 19.6 nM |
| CC1(C)C(NC(=O)c2ccc(N3CC4CC3CN4CC3CCN(c4ccc5nnn(C6CCC(=O)NC6=O)c(=O)c5c4)CC3)cc2)C(C)(C)C1Oc1ccc(C#N)c(Cl)c1 (stereo not drawn) [Example 72, N-((1r,3r)-3-(3-chloro-4-cyanophenoxy)-2,2,4,4-tetramethylcyclobutyl)-4-(5-((1-(3-(2,6-dioxopiperidin-3-yl)-4-oxo-3,4-dihydrobenzo[d][1,2,3]triazin-6-yl)piperidin-4-yl)methyl)-2,5-diazabicyclo[2.2.1]heptan-2-yl)benzamide] | 92% | – | 263 nM |
| CC1(C)C(NC(=O)c2ccc(N3CCN(C=C4CCN(c5ccc6nnn(C7CCC(=O)NC7=O)c(=O)c6c5)CC4)CC3)cc2)C(C)(C)C1Oc1ccc(C#N)c(Cl)c1 (stereo not drawn) [Example 64, N-((1r,3r)-3-(3-chloro-4-cyanophenoxy)-2,2,4,4-tetramethylcyclobutyl)-4-(4-((1-(3-(2,6-dioxopiperidin-3-yl)-4-oxo-3,4-dihydrobenzo[d][1,2,3]triazin-6-yl)piperidin-4-ylidene)methyl)piperazin-1-yl)benzamide] | 56% | – | 76.2 nM |
| CC1(C)C(NC(=O)c2ccc(N3CCN(CC4(O)CCN(C(=O)C5CN(c6ccc7nnn(C8CCC(=O)NC8=O)c(=O)c7c6)C5)CC4)CC3)cc2)C(C)(C)C1Oc1ccc(C#N)c(Cl)c1 (stereo not drawn) [Example 56, N-((1r,3r)-3-(3-chloro-4-cyanophenoxy)-2,2,4,4-tetramethylcyclobutyl)-4-(4-((1-(1-(3-(2,6-dioxopiperidin-3-yl)-4-oxo-3,4-dihydrobenzo[d][1,2,3]triazin-6-yl)azetidine-3-carbonyl)-4-hydroxypiperidin-4-yl)methyl)piperazin-1-yl)benzamide] | 21.3% | – | 36.1 nM |
| CC1(C)C(NC(=O)c2ccc(C#CCC3CCN(c4ccc5nnn(C6CCC(=O)NC6=O)c(=O)c5c4)CC3)cc2)C(C)(C)C1Oc1ccc(C#N)c(Cl)c1 (stereo not drawn) [Example 85, N-((1r,3r)-3-(3-chloro-4-cyanophenoxy)-2,2,4,4-tetramethylcyclobutyl)-4-(3-(1-(3-(2,6-dioxopiperidin-3-yl)-4-oxo-3,4-dihydrobenzo[d][1,2,3]triazin-6-yl)piperidin-4-yl)prop-1-yn-1-yl)benzamide] | 21% | – | 171 nM |

Now from value to molecule, other results behind:

| Degradation (1 μM treated in LNCaP, % AR remaining) (Androgen receptor (AR)) | SMILES | CC50 (LNCaP cells) | CC50 (VCaP cells) |
| --- | --- | --- | --- |
| 21.1% | CC1(C)C(NC(=O)c2ccc(N3CCN(CCCC4CCN(C(=O)COc5ccc6nnn(C7CCC(=O)NC7=O)c(=O)c6c5)CC4)CC3)cc2)C(C)(C)C1Oc1ccc(C#N)c(Cl)c1 (stereo not drawn) [Example 45, N-((1r,3r)-3-(3-chloro-4-cyanophenoxy)-2,2,4,4-tetramethylcyclobutyl)-4-(4-(3-(1-(2-((3-(2,6-dioxopiperidin-3-yl)-4-oxo-3,4-dihydrobenzo[d][1,2,3]triazin-6-yl)oxy)acetyl)piperidin-4-yl)propyl)piperazin-1-yl)benzamide] | – | 46.6 nM |
| 27.3% | CC1(C)C(NC(=O)c2ccc(N3CCN(CCCOC4CCN(C(=O)COc5ccc6nnn(C7CCC(=O)NC7=O)c(=O)c6c5)CC4)CC3)cc2)C(C)(C)C1Oc1ccc(C#N)c(Cl)c1 (stereo not drawn) [Example 38, N-((1r,3r)-3-(3-chloro-4-cyanophenoxy)-2,2,4,4-tetramethylcyclobutyl)-4-(4-(3-((1-(2-((3-(2,6-dioxopiperidin-3-yl)-4-oxo-3,4-dihydrobenzo[d][1,2,3]triazin-6-yl)oxy)acetyl)piperidin-4-yl)oxy)propyl)piperazin-1-yl)benzamide] | – | 43.2 nM |
| 35.2% | CC1(C)[C@H](NC(=O)c2ccc(N3CCN(CCCC4CCN(c5ccc6nnn(C7CCC(=O)NC7=O)c(=O)c6c5)CC4)CC3)cc2)C(C)(C)[C@H]1Oc1ccc(C#N)c(Cl)c1 (stereo partly drawn) [Example 48, N-((1r,3r)-3-(3-chloro-4-cyanophenoxy)-2,2,4,4-tetramethylcyclobutyl)-4-(4-(3-(1-(3-(2,6-dioxopiperidin-3-yl)-4-oxo-3,4-dihydrobenzo[d][1,2,3]triazin-6-yl)piperidin-4-yl)propyl)piperazin-1-yl)benzamide] | – | 77 nM |
| 30% | CC1(C)C(NC(=O)c2ccc(C3CCN(CCOC4CCN(c5ccc6nnn(C7CCC(=O)NC7=O)c(=O)c6c5)CC4)CC3)cc2)C(C)(C)C1Oc1ccc(C#N)c(Cl)c1 (stereo not drawn) [Example 76, N-((1r,3r)-3-(3-chloro-4-cyanophenoxy)-2,2,4,4-tetramethylcyclobutyl)-4-(1-(2-((1-(3-(2,6-dioxopiperidin-3-yl)-4-oxo-3,4-dihydrobenzo[d][1,2,3]triazin-6-yl)piperidin-4-yl)oxy)ethyl)piperidin-4-yl)benzamide] | – | 35 nM |
| 2.1% | CC1(C)C(NC(=O)c2ccc(N3CCN(CCCOC4CCN(c5ccc6nnn(C7CCC(=O)NC7=O)c(=O)c6c5)CC4)CC3)cc2)C(C)(C)C1Oc1ccc(C#N)c(Cl)c1 (stereo not drawn) [Example 39, N-((1r,3r)-3-(3-chloro-4-cyanophenoxy)-2,2,4,4-tetramethylcyclobutyl)-4-(4-(3-((1-(3-(2,6-dioxopiperidin-3-yl)-4-oxo-3,4-dihydrobenzo[d][1,2,3]triazin-6-yl)piperidin-4-yl)oxy)propyl)piperazin-1-yl)benzamide] | – | 86.6 nM |
